In PMC8086025, “A benzopyran with antiarrhythmic activity is an inhibitor of Kir3.1-containing potassium channels” (The Journal of Biological Chemistry, 2021):
Values joined by “and” are separate entries in the source; they are usually repeats but may differ in a detail not shown here. Equal entries are not always repeated.

Columns and labels:
Kir3.1/2 channel = target: T1, Kir3.1/2 channel (UniProt P48542+P48549); assay: Whole-cell patch clamp, HEK293T cells, Kir3.1/2; assay type: cell-based, human Kir3.1, mouse Kir3.2; parameters: expressed in transfected cells; host or cells: HEK293T; settings: whole-cell patch-clamp HEK-293 cells; read-out: IC50, inhibition of Kir3.1/2
T1 sequence (P48549 1-501): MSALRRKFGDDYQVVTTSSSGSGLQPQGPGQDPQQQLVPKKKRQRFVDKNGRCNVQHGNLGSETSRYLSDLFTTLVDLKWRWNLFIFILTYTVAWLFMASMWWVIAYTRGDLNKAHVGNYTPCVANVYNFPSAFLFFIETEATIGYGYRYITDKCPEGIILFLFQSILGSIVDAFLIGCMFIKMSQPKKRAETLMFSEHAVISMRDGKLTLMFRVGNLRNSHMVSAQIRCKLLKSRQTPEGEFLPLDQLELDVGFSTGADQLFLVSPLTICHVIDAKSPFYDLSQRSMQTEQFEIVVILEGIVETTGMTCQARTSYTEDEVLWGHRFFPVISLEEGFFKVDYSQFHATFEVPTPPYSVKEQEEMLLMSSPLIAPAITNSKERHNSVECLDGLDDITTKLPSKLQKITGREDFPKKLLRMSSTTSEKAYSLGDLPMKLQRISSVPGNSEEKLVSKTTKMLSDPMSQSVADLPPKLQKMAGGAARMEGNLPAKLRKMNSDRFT
T1 sequence (P48542 1-425): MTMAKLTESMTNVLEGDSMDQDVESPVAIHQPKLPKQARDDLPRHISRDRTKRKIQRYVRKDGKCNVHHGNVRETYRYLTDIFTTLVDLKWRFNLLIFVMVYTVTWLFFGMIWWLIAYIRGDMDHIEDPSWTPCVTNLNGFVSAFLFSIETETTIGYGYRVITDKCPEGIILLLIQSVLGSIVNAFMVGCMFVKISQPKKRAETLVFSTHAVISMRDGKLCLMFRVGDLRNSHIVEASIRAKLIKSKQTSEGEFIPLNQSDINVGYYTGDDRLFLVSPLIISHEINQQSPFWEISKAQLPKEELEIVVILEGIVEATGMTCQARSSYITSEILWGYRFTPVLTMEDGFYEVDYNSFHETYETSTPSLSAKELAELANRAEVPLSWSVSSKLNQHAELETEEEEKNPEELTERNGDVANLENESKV
Description: (§1) For the experiments shown in Figure 1, G and H, whole-cell currents were recorded with an Axopatch 200B amplifier and pCLAMP software (Molecular Devices). HEK293T cells were transiently transfected with 1 μg Kir3.1 together with 1 μg Kir3.2 or 1 μg Kir3.4 DNA, using polyethylenimine (PEI). The cells were maintained in DMEM supplemented with 10% Fetal Bovine Serum and 1% Penicillin/Streptomycin at 37 °C in a 5% CO2 humidified atmosphere and were studied 24 to 48 h after transfection. HEK293T cells were bathed in Low K^+ (LK) solution (135 mM NaCl, 5 mM KCl, 1.2 mM MgCl2, 1.5 mM CaCl2, 8 mM Glucose, 10 mM HEPES with pH 7.4). High K^+ (HK) solution (5 mM NaCl, 135 mM KCl, 1.2 mM MgCl2, 1.5 mM CaCl2, 8 mM Glucose, 10 mM HEPES with pH 7.4) was perfused to establish basal currents. BP-G1 in HK solution was perfused sequentially in a concentration response manner prior to applying 5 mM BaCl2 in HK to identify remaining barium-insensitive leak currents and subtract them from the current records. […] Cells used in the experiments were selected based on eGFP fluorescence. A ramp protocol from −80 mV to +80 mV was used and currents were recorded at −80 mV in the whole-cell mode (using the Strathclyde Electrophysiology Software from the University of Strathclyde, Glasgow). The patch-clamp data were analyzed offline in pClamp (Molecular Devices) and OriginLab software. […]

Kir3.1/4 channel = target: T2, Kir3.1/4 channel (Homo sapiens, UniProt P48544+P48549); assay: Whole-cell patch clamp, HEK293T cells, Kir3.1/4; assay type: cell-based; parameters: expressed in transfected cells; settings: whole-cell patch-clamp HEK-293 cells; read-out: IC50, inhibition of Kir3.1/4
T2 sequence (P48549 1-501): T1 sequence (P48549 1-501)
T2 sequence (P48544 1-419): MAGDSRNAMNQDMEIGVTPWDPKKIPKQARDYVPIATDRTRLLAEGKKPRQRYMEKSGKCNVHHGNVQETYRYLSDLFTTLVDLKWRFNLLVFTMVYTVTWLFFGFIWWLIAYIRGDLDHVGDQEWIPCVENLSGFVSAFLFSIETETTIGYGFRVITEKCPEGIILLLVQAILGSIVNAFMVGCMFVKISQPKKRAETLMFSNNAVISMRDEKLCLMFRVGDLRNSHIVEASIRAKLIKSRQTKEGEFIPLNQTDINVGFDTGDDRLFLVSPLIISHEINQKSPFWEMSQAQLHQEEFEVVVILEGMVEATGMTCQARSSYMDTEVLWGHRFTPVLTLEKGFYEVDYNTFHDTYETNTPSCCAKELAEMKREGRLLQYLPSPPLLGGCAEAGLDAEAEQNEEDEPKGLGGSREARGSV
Description: as §1

Question: Which IC50 (Kir3.1/2 channel) does the source give for `Cc1cc(CO)nc2cc3c(cc12)OC(C)(C)[C@H](O)[C@H]3NCCc1ccccc1` [BP-G1, (3R,4S)-7-(hydroxymethyl)-2,2,9-trimethyl-4-(2-phenylethylamino)-3,4-dihydropyrano[2,3-g]quinolin-3-ol] here?
Answer: 10 to 30 nM and 32.2 nM

Question: What about the IC50 (Kir3.1/4 channel) of the same compound?
Answer: 10 to 30 nM and 10.5 nM
